Experimental findings from patent US12617752B2, “Rapidly metabolized lipid compound” (Beijing Jitai Life Sciences Ltd, priority 2023, dated 2026) are described below.

Data set [1] can be described thus: Particle size and PDI of lipid nanoparticles by dynamic light scattering. It counts as physicochemical. The conditions noted are these: lipid nanoparticles with luciferase mRNA; ionizable lipid/cholesterol/DSPC/DMG-PEG2000 50/38.5/10/1.5 mol%. On the procedure: (§1) Lipid nanoparticles were prepared by (1) dissolving and mixing ionizable lipid compounds, cholesterol, phospholipids and polyethylene glycolated lipids in ethanol at (molar percentages) 50%, 38.5%, 10% and 1.5%, respectively; (2) dissolving the mRNA active ingredient in 25 mM sodium acetate solution (pH=4.5); (3) using an automated high-throughput microfluidic system to mix the organic phase containing the lipid mixture and the aqueous phase containing the mRNA component in the flow ratio range of 1:1 to 1:4 at a mixing speed of 10 mL/min to 18 mL/min; (4) the prepared lipid nanoparticles (N/P ratio=6) were diluted with phosphate buffer solution and the nanoparticle solutions were ultrafiltered to the original preparation volume using ultrafiltration tubes (purchased from Millipore) with a cut-off molecular weight of 30 kDa; and (5) the obtained nanoparticles were filtered through a sterile 0.2 μm filter membrane and then stored in a sealed glass vial at low temperature.
(§2) The particle size and particle size dispersity index (PDI) of the prepared lipid nanoparticles were measured using a Zetasizer Pro (purchased from Malvern Instruments Ltd) and a DynaPro NanoStar (purchased from Wyatt) dynamic light scattering instrument. The degree of RNA encapsulation by lipid nanoparticles was characterized by the Encapsulation Efficiency %, which reflects the degree of binding of lipid nanoparticles to RNA fragments. This parameter was measured by the method of Quant-it™ RiboGreen RNA Assay (purchased from Invitrogen). Lipid nanoparticle samples were diluted in TE buffer (10 mM Tris-HCl, 1 mM EDTA, pH=7.5). A portion of the sample solution was removed, to which 0.5% Triton (Triton X-100) was added, and then allowed to stand at 37° C. for 30 minutes. Immediately after the addition of RIBOGREEN® reaction solution, the fluorescence values were read on a Varioskan LUX multifunctional microplate reader (purchased from Thermofisher) at 485 nm for absorption and 528 nm for emission to give the encapsulation efficiency values.

For data set [2], the system named is C57BL/6 mice. In words: In vivo delivery of luciferase mRNA lipid nanoparticles in mice (bioluminescence imaging). To be noted: intravenous, single dose 0.5 mg/kg luciferase mRNA. As to the method: The delivery effect and safety of nanoparticles encapsulated with luciferase mRNA (Trilink, L-7202) in mice were evaluated. The test mice were SPF-grade C57BL/6 mice, female, 6-8 weeks old, weighing 18-22 g, and were purchased from SPF (Beijing) Biotechnology Co., Ltd. All animals were acclimatized for more than 7 days prior to the experiment, and had free access to food and water during the experiment. The conditions include alternating light and dark for 12/12 h, the indoor temperature of 20-26° C. and the humidity of 40-70%. The mice were randomly grouped. The lipid nanoparticles encapsulated with luciferase mRNA prepared above were injected into mice by intravenous administration at a single dose of 0.5 mg/kg mRNA, and the mice were subjected to in vivo bioluminescence assay using a Small Animal In Vivo Imaging System (IVIS LUMINA III, purchased from PerkinElmer) at 6 h after administration. The assay was performed as follows: D-luciferin solution was prepared in saline at a concentration of 15 mg/mL, and each mouse was given the substrate by intraperitoneal injection. At ten minutes after administration of the substrate, the mice were anesthetized in an anesthesia chamber with isoflurane at a concentration of 2.5%. The anesthetized mice were placed in IVIS for fluorescence imaging, and data acquisition and analysis were performed on the concentrated distribution area of fluorescence.
The in vivo delivery efficiency of lipid nanoparticle carriers was expressed as the mean values of fluorescence intensity and total photon count in different animals within the same subject group, as shown in Table 5-Table 11. Higher values of fluorescence intensity and total photon count indicate higher in vivo delivery efficiency of this mRNA fragment by lipid nanoparticles. The lipid nanoparticles containing the cationic lipids of the present disclosure have good in vivo delivery efficiency.

Data set [3] is described as follows: Encapsulation efficiency of lipid nanoparticles (Quant-it RiboGreen RNA Assay). It counts as physicochemical. The conditions noted are these: lipid nanoparticles with luciferase mRNA. On the procedure: as §1, §2

For `CCCCCCCCCCCOC(=O)CCCCCN(CCO)CCCCCCC1(C(=O)OC(CCCCCCCC)CCCCCCCC)CCCC1` [22a], in data set [1], the “Particle size (nm)” value worked out at 99.48 nm and the “Particle-size distribution (PDI)” value came to 0.010. Further, the “Total photon count in vivo at 6 hours after administration (Total Flux)” value (“Total photon count in vivo at 6 hours” below) in data set [2] is listed as 1.74E+10. For the same molecule, the “Encapsulation efficiency (%)” value in data set [3] was 97.25%.
In the same order, the values of `CCCCCCCCCCOC(=O)CCCCCN(CCO)CCCCCCC(C)(C)C(=O)OC(CCCCCCC)CCCCCCC` [23a] are 99.25 nm, 0.011, 9.84E+10 and 96.30%.
Regarding `CCCCCCCCCC(=O)OCC1(CCCCCN(CCO)CCCCCCCC(=O)OCCC(CCCCCC)CCCCCC)CC1` [23b], in data set [1], the “Particle size (nm)” value stood at 115.70 nm and the “Particle-size distribution (PDI)” value amounted to 0.031. Besides, the “Total photon count in vivo at 6 hours” value in data set [2] is 3.92E+10. The “Encapsulation efficiency (%)” value in data set [3] came out at 93.14%.
With `CCCCCCCCCCCCOC(=O)CCCCCN(CCO)CCCCCCC(C)(C)C(=O)OC(CCCCCCCCC)CCCCCCCCC` [24a], in data set [1], the “Particle size (nm)” value is reported as 109.53 nm and the “Particle-size distribution (PDI)” value worked out at 0.052. Also, the “Total photon count in vivo at 6 hours” value in data set [2] is reported as 3.07E+10. Besides, in data set [3], the “Encapsulation efficiency (%)” value worked out at 88.89%.
In the same order, the values of `CCCCCCCCCC(=O)OCC1(CCCCCN(CCCCO)CCCCCCCC(=O)OC(CCCCCCCCC)CCCCCCCCC)CC1` [24b] are 83.05 nm, 0.019, 7.06E+10 and 94.52%.
For `CCCCCCCCCOC(=O)CCCCC(C)(C)CCN(CCO)CCCCCCCC(=O)OC(CCCCCCCC)CCCCCCCC` [25a] the same measures were 86.99 nm, 0.051, 1.33E+11 and 95.62%.
In the same order, the values of `CCCCCCCCCC(=O)OCCCCCCCN(CCO)CCCCC(C)(C)COC(=O)OCC(CCCCCCC)CCCCCCC` [25b] are 94.39 nm, 0.15, 1.11E+11 and 95.59%.
Take `CCCCCCCCCOC(=O)CCCCC(C)(C)CCN(CCO)CCCCCCCC(=O)OCC(CCCCCCC)CCCCCCC` [26a]: in data set [1], the “Particle size (nm)” value came to 106.37 nm and the “Particle-size distribution (PDI)” value is listed as 0.050. In addition, in data set [2], the “Total photon count in vivo at 6 hours” value was determined as 1.11E+11. For the same molecule, the “Encapsulation efficiency (%)” value in data set [3] was determined as 91.18%.
For the molecule `CCCCCCCCCOC(=O)CCCCC(C)(C)CCN(CCO)CCCCCCCC(=O)OCCC(CCCCCC)CCCCCC` [27a], in data set [1], the “Particle size (nm)” value was determined as 136.43 nm and the “Particle-size distribution (PDI)” value is on record as 0.016. Also, the “Total photon count in vivo at 6 hours” value in data set [2] stood at 4.31E+10. Besides, in data set [3], the “Encapsulation efficiency (%)” value turned out to be 93.52%.
In the case of `CCCCCCCCCCOC(=O)OCCCCCCN(CCO)CCCCCC(C)(C)COC(=O)CC(CCCCCCC)CCCCCCC` [27b], in data set [1], the “Particle size (nm)” value was found to be 91.10 nm and the “Particle-size distribution (PDI)” value is on record as 0.18. In addition, the “Total photon count in vivo at 6 hours” value in data set [2] came out at 5.59E+10. In addition, the “Encapsulation efficiency (%)” value in data set [3] is 97.83%.
In the same order, the values of `CCCCCCCCCCOC(=O)CCCC(C)(C)CCN(CCO)CCCCCCCC(=O)OCCC(CCCCCC)CCCCCC` [28a] are 110.30 nm, 0.018, 4.30E+10 and 93.90%.
Take `CCCCCCCCCCCOC(=O)OCCCCCN(CCO)CCCCCC(C)(C)COC(=O)CC(CCCCCCC)CCCCCCC` [28b]: in data set [1], the “Particle size (nm)” value came to 94.55 nm and the “Particle-size distribution (PDI)” value worked out at 0.16. The “Total photon count in vivo at 6 hours” value in data set [2] worked out at 4.18E+10. The “Encapsulation efficiency (%)” value in data set [3] was 96.19%.
For `CCCCCCCCCCOC(=O)CCC(C)(C)CCCCN(CCCCO)CCCCCCCC(=O)OC(CCCCCCCCC)CCCCCCCCC` [29a] the same measures were 88.59 nm, 0.012, 5.46E+10 and 97.30%.
As for `CCCCCCCCCOC(=O)OCCCCCCCN(CCO)CCCCCC(C)(C)COC(=O)CC(CCCCCCC)CCCCCCC` [29b], in data set [1], the “Particle size (nm)” value came out at 112.43 nm and the “Particle-size distribution (PDI)” value came out at 0.10. Moreover, the “Total photon count in vivo at 6 hours” value in data set [2] is given as 3.52E+10. For the same molecule, the “Encapsulation efficiency (%)” value in data set [3] came out at 96.28%.
On to `CCCCCCCCCCOC(=O)OCCCCCCN(CCCCO)CCCCCC(C)(C)COC(=O)CC(CCCCCCC)CCCCCCC` [30b], for which, in data set [1], the “Particle size (nm)” value turned out to be 115.83 nm and the “Particle-size distribution (PDI)” value is 0.08. In data set [2], the “Total photon count in vivo at 6 hours” value is reported as 4.03E+10. Also, the “Encapsulation efficiency (%)” value in data set [3] was 95.02%.
For the molecule `CCCCCCCCCCOC(=O)OCCCCCN(CCO)CCCCCCC(C)(C)C(=O)OC(CCCCCCCC)CCCCCCCC` [31a], in data set [1], the “Particle size (nm)” value was determined as 115.56 nm and the “Particle-size distribution (PDI)” value was 0.11. Also, the “Total photon count in vivo at 6 hours” value in data set [2] is 7.04E+10. In addition, in data set [3], the “Encapsulation efficiency (%)” value was found to be 86.08%.
For `CCCCCCCCCCCOC(=O)OCCCCCN(CCCCO)CCCCCC(C)(C)COC(=O)CC(CCCCCCC)CCCCCCC` [31b] the same measures were 118.73 nm, 0.07, 1.87E+10 and 95.73%.
Take `CCCCCCCCCOC(=O)OCCCCCCN(CCCO)CCCCCCC(C)(C)C(=O)OC(CCCCCCCC)CCCCCCCC` [32a]: in data set [1], the “Particle size (nm)” value is 129.00 nm and the “Particle-size distribution (PDI)” value stood at 0.10. Besides, the “Total photon count in vivo at 6 hours” value in data set [2] is listed as 1.24E+10. The “Encapsulation efficiency (%)” value in data set [3] is listed as 83.51%.
With `CCCCCCCCCOC(=O)OCCCCCCCN(CCCCO)CCCCCC(C)(C)COC(=O)CC(CCCCCCC)CCCCCCC` [32b], in data set [1], the “Particle size (nm)” value is 116.50 nm and the “Particle-size distribution (PDI)” value is given as 0.16. Further, the “Total photon count in vivo at 6 hours” value in data set [2] was 3.52E+10. In addition, in data set [3], the “Encapsulation efficiency (%)” value is 95.31%.
As for `CCCCCCCCCOC(=O)OCCCCCCN(CCO)CCCCCCC(C)(C)C(=O)OCC(CCCCCCC)CCCCCCC` [33a], in data set [1], the “Particle size (nm)” value was 111.60 nm and the “Particle-size distribution (PDI)” value was determined as 0.17. The “Total photon count in vivo at 6 hours” value in data set [2] was 1.09E+11. Besides, in data set [3], the “Encapsulation efficiency (%)” value turned out to be 86.98%.
As for `CCCCCCCCCC(=O)OCC(C)(C)CCCCCN(CCO)CCCCCCOC(=O)OCC(CCCCCCCC)CCCCCCCC` [33b], in data set [1], the “Particle size (nm)” value is on record as 85.80 nm and the “Particle-size distribution (PDI)” value came out at 0.15. In addition, the “Total photon count in vivo at 6 hours” value in data set [2] was found to be 8.23E+10. Further, in data set [3], the “Encapsulation efficiency (%)” value is reported as 94.85%.
For the molecule `CCCCCCCCCOC(=O)OCCCCCCN(CCO)CCCCCCC(C)(C)C(=O)OCCC(CCCCCC)CCCCCC` [34a], in data set [1], the “Particle size (nm)” value was 116.67 nm and the “Particle-size distribution (PDI)” value is reported as 0.12. Moreover, the “Total photon count in vivo at 6 hours” value in data set [2] turned out to be 3.14E+10. For the same molecule, the “Encapsulation efficiency (%)” value in data set [3] was determined as 95.73%.
